According to the supplement of paper PMC10307832:

Tests used:
Assay in all cases: relative viability (nuclei count vs DMSO), 5 days (fraction); higher = more cells survive
BEN = test system: BEN
Summary of the method: (§1)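 Five library-drug doses in √10 steps were combined with a fixed anchor-drug dose, or a single drug was given alone, by pin tool to lung cancer cell lines in 1536-well plates the day after seeding. Nuclei were stained and counted after 5 days. Relative viability is the nuclei count in treated wells over that in vehicle wells, taken as the median of duplicate plates.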

EPLC-272H = test system: EPLC-272H
Summary of the method: as §1

HCC-827 = test system: HCC-827
Summary of the method: as §1

HOP-62 = test system: HOP-62
Summary of the method: as §1

LU99A = test system: LU99A
Summary of the method: as §1

LXF-289 = test system: LXF-289
Summary of the method: as §1

NCI-H1437 = test system: NCI-H1437
Summary of the method: as §1

NCI-H1666 = test system: NCI-H1666
Summary of the method: as §1

NCI-H1915 = test system: NCI-H1915
Summary of the method: as §1

NCI-H2170 = test system: NCI-H2170
Summary of the method: as §1

NCI-H2228 = test system: NCI-H2228
Summary of the method: as §1

NCI-H2347 = test system: NCI-H2347
Summary of the method: as §1

NCI-H23 = test system: NCI-H23
Summary of the method: as §1

NCI-H322M = test system: NCI-H322M
Summary of the method: as §1

NCI-H441 = test system: NCI-H441
Summary of the method: as §1

NCI-H647 = test system: NCI-H647
Summary of the method: as §1

NCI-H727 = test system: NCI-H727
Summary of the method: as §1

SK-MES-1 = test system: SK-MES-1
Summary of the method: as §1

SW 1573 = test system: SW 1573
Summary of the method: as §1

NCI-H2342 = test system: NCI-H2342
Summary of the method: as §1

NCI-H358 = test system: NCI-H358
Summary of the method: as §1

NCI-H522 = test system: NCI-H522
Summary of the method: as §1

NCI-H650 = test system: NCI-H650
Summary of the method: as §1

## Oc1nc(-c2ccc(C(F)(F)F)cc2)nc2c1CSCC2 [XAV939] + CC1(C)CCC(c2ccc(Cl)cc2)=C(CN2CCN(c3ccc(C(=O)NS(=O)(=O)c4ccc(N[C@H](CCN5CCOCC5)CSc5ccccc5)c(S(=O)(=O)C(F)(F)F)c4)cc3)CC2)C1 [Navitoclax] (partner 0.5 µM)
BEN; first compound 0.08 µM
  relative viability: 0.0604
BEN; first compound 0.253 µM
  relative viability: 0.0746
BEN; first compound 0.8 µM
  relative viability: 0.0568
EPLC-272H; first compound 0.08 µM
  relative viability: 1.18
EPLC-272H; first compound 0.253 µM
  relative viability: 1.08
EPLC-272H; first compound 0.8 µM
  relative viability: 1.19
EPLC-272H; first compound 2.53 µM
  relative viability: 1.11
HCC-827; first compound 0.08 µM
  relative viability: 1.02
HCC-827; first compound 0.253 µM
  relative viability: 1.02
HCC-827; first compound 0.8 µM
  relative viability: 0.975
HCC-827; first compound 2.53 µM
  relative viability: 1.04
HOP-62; first compound 0.08 µM
  relative viability: 1.08
HOP-62; first compound 0.253 µM
  relative viability: 1.02
HOP-62; first compound 0.8 µM
  relative viability: 0.995
HOP-62; first compound 2.53 µM
  relative viability: 0.932
LU99A; first compound 0.08 µM
  relative viability: 0.939
LU99A; first compound 0.253 µM
  relative viability: 0.708
LU99A; first compound 0.8 µM
  relative viability: 0.683
LU99A; first compound 2.53 µM
  relative viability: 0.708
LXF-289; first compound 0.08 µM
  relative viability: 0.92
LXF-289; first compound 0.253 µM
  relative viability: 0.911
LXF-289; first compound 0.8 µM
  relative viability: 0.949
LXF-289; first compound 2.53 µM
  relative viability: 0.972
NCI-H1437; first compound 0.08 µM
  relative viability: 1.14
NCI-H1437; first compound 0.253 µM
  relative viability: 0.931
NCI-H1437; first compound 0.8 µM
  relative viability: 1.12
NCI-H1437; first compound 2.53 µM
  relative viability: 0.888
NCI-H1666; first compound 0.08 µM
  relative viability: 0.847
NCI-H1666; first compound 0.253 µM
  relative viability: 0.721
NCI-H1666; first compound 0.8 µM
  relative viability: 0.903
NCI-H1666; first compound 2.53 µM
  relative viability: 0.469
NCI-H1915; first compound 0.08 µM
  relative viability: 0.813
NCI-H1915; first compound 0.253 µM
  relative viability: 0.793
NCI-H1915; first compound 0.8 µM
  relative viability: 0.769
NCI-H1915; first compound 2.53 µM
  relative viability: 0.792
NCI-H2170; first compound 0.08 µM
  relative viability: 0.427
NCI-H2170; first compound 0.253 µM
  relative viability: 0.441
NCI-H2170; first compound 0.8 µM
  relative viability: 0.501
NCI-H2170; first compound 2.53 µM
  relative viability: 0.422
NCI-H2228; first compound 0.08 µM
  relative viability: 1.13
NCI-H2228; first compound 0.253 µM
  relative viability: 0.838
NCI-H2228; first compound 0.8 µM
  relative viability: 0.94
NCI-H2228; first compound 2.53 µM
  relative viability: 1.1
NCI-H2347; first compound 0.08 µM
  relative viability: 0.788
NCI-H2347; first compound 0.253 µM
  relative viability: 0.886
NCI-H2347; first compound 0.8 µM
  relative viability: 0.75
NCI-H2347; first compound 2.53 µM
  relative viability: 0.698
NCI-H23; first compound 0.08 µM
  relative viability: 0.859
NCI-H23; first compound 0.253 µM
  relative viability: 0.776
NCI-H23; first compound 0.8 µM
  relative viability: 0.531
NCI-H23; first compound 2.53 µM
  relative viability: 0.755
NCI-H322M; first compound 0.08 µM
  relative viability: 1.26
NCI-H322M; first compound 0.253 µM
  relative viability: 0.748
NCI-H322M; first compound 0.8 µM
  relative viability: 1.21
NCI-H322M; first compound 2.53 µM
  relative viability: 1.03
NCI-H441; first compound 0.08 µM
  relative viability: 0.571
NCI-H441; first compound 0.253 µM
  relative viability: 0.683
NCI-H441; first compound 0.8 µM
  relative viability: 0.487
NCI-H441; first compound 2.53 µM
  relative viability: 0.973
NCI-H647; first compound 0.08 µM
  relative viability: 1.18
NCI-H647; first compound 0.253 µM
  relative viability: 0.94
NCI-H647; first compound 0.8 µM
  relative viability: 0.881
NCI-H647; first compound 2.53 µM
  relative viability: 0.877
NCI-H727; first compound 0.08 µM
  relative viability: 0.407
NCI-H727; first compound 0.253 µM
  relative viability: 0.231
NCI-H727; first compound 0.8 µM
  relative viability: 0.362
NCI-H727; first compound 2.53 µM
  relative viability: 0.44
SK-MES-1; first compound 0.08 µM
  relative viability: 1.21
SK-MES-1; first compound 0.253 µM
  relative viability: 1.12
SK-MES-1; first compound 0.8 µM
  relative viability: 1.12
SK-MES-1; first compound 2.53 µM
  relative viability: 1.14
SW 1573; first compound 0.08 µM
  relative viability: 1.16
SW 1573; first compound 0.253 µM
  relative viability: 0.957
SW 1573; first compound 0.8 µM
  relative viability: 0.83
SW 1573; first compound 2.53 µM
  relative viability: 0.792

## Oc1nc(-c2ccc(C(F)(F)F)cc2)nc2c1CSCC2 [XAV939] + NC(=O)Nc1cc(-c2cccc(F)c2)sc1C(=O)N[C@H]1CCCNC1 [AZD7762] (partner 0.2 µM)
BEN; first compound 0.08 µM
  relative viability: 0.629
BEN; first compound 0.253 µM
  relative viability: 0.651
BEN; first compound 0.8 µM
  relative viability: 0.619
BEN; first compound 2.53 µM
  relative viability: 0.597
EPLC-272H; first compound 0.08 µM
  relative viability: 0.229
EPLC-272H; first compound 0.253 µM
  relative viability: 0.18
EPLC-272H; first compound 0.8 µM
  relative viability: 0.193
EPLC-272H; first compound 2.53 µM
  relative viability: 0.0888
HCC-827; first compound 0.08 µM
  relative viability: 0.228
HCC-827; first compound 0.253 µM
  relative viability: 0.195
HCC-827; first compound 0.8 µM
  relative viability: 0.213
HCC-827; first compound 2.53 µM
  relative viability: 0.177
HOP-62; first compound 0.08 µM
  relative viability: 0.827
HOP-62; first compound 0.253 µM
  relative viability: 0.503
HOP-62; first compound 0.8 µM
  relative viability: 0.613
HOP-62; first compound 2.53 µM
  relative viability: 0.323
LU99A; first compound 0.08 µM
  relative viability: 0.495
LU99A; first compound 0.253 µM
  relative viability: 0.394
LU99A; first compound 0.8 µM
  relative viability: 0.339
LU99A; first compound 2.53 µM
  relative viability: 0.32
LXF-289; first compound 0.08 µM
  relative viability: 1.16
LXF-289; first compound 0.253 µM
  relative viability: 1.04
LXF-289; first compound 0.8 µM
  relative viability: 1.1
LXF-289; first compound 2.53 µM
  relative viability: 1.21
NCI-H1437; first compound 0.08 µM
  relative viability: 1.17
NCI-H1437; first compound 0.253 µM
  relative viability: 1.07
NCI-H1437; first compound 0.8 µM
  relative viability: 1.1
NCI-H1437; first compound 2.53 µM
  relative viability: 1.02
NCI-H1666; first compound 0.08 µM
  relative viability: 0.885
NCI-H1666; first compound 0.253 µM
  relative viability: 0.656
NCI-H1666; first compound 0.8 µM
  relative viability: 0.735
NCI-H1666; first compound 2.53 µM
  relative viability: 0.621
NCI-H1915; first compound 0.08 µM
  relative viability: 0.898
NCI-H1915; first compound 0.253 µM
  relative viability: 0.674
NCI-H1915; first compound 0.8 µM
  relative viability: 0.693
NCI-H1915; first compound 2.53 µM
  relative viability: 0.665
NCI-H2170; first compound 0.08 µM
  relative viability: 0.867
NCI-H2170; first compound 0.253 µM
  relative viability: 0.692
NCI-H2170; first compound 0.8 µM
  relative viability: 0.823
NCI-H2170; first compound 2.53 µM
  relative viability: 0.532
NCI-H2342; first compound 0.08 µM
  relative viability: 0.425
NCI-H2342; first compound 0.253 µM
  relative viability: 0.443
NCI-H2342; first compound 0.8 µM
  relative viability: 0.401
NCI-H2342; first compound 2.53 µM
  relative viability: 0.345
NCI-H2347; first compound 0.08 µM
  relative viability: 0.803
NCI-H2347; first compound 0.253 µM
  relative viability: 0.612
NCI-H2347; first compound 0.8 µM
  relative viability: 0.796
NCI-H2347; first compound 2.53 µM
  relative viability: 0.58
NCI-H23; first compound 0.08 µM
  relative viability: 0.393
NCI-H23; first compound 0.8 µM
  relative viability: 0.195
NCI-H23; first compound 2.53 µM
  relative viability: 0.238
NCI-H322M; first compound 0.08 µM
  relative viability: 0.573
NCI-H322M; first compound 0.253 µM
  relative viability: 0.45
NCI-H322M; first compound 0.8 µM
  relative viability: 0.539
NCI-H322M; first compound 2.53 µM
  relative viability: 0.495
NCI-H358; first compound 0.08 µM
  relative viability: 0.476
NCI-H358; first compound 0.253 µM
  relative viability: 0.438
NCI-H358; first compound 0.8 µM
  relative viability: 0.344
NCI-H358; first compound 2.53 µM
  relative viability: 0.448
NCI-H441; first compound 0.08 µM
  relative viability: 1.08
NCI-H441; first compound 0.253 µM
  relative viability: 0.947
NCI-H441; first compound 0.8 µM
  relative viability: 1.27
NCI-H441; first compound 2.53 µM
  relative viability: 1.27
NCI-H522; first compound 0.08 µM
  relative viability: 0.914
NCI-H522; first compound 0.253 µM
  relative viability: 0.797
NCI-H522; first compound 0.8 µM
  relative viability: 0.825
NCI-H522; first compound 2.53 µM
  relative viability: 0.819
NCI-H647; first compound 0.08 µM
  relative viability: 0.489
NCI-H647; first compound 0.253 µM
  relative viability: 0.351
NCI-H647; first compound 0.8 µM
  relative viability: 0.319
NCI-H647; first compound 2.53 µM
  relative viability: 0.412
NCI-H650; first compound 0.08 µM
  relative viability: 1.04
NCI-H650; first compound 0.253 µM
  relative viability: 0.809
NCI-H650; first compound 0.8 µM
  relative viability: 1.02
NCI-H650; first compound 2.53 µM
  relative viability: 0.773
NCI-H727; first compound 0.08 µM
  relative viability: 0.514
NCI-H727; first compound 0.8 µM
  relative viability: 0.626
NCI-H727; first compound 2.53 µM
  relative viability: 0.783
